Measured values taken from patent US6528494B2 (priority 1996, dated 2003).
Structures can show the parent of a compound that is named as a salt.

Experiments:
Assay type in all cases: cell-based
adenosine 1 receptor = molecular target: T1, adenosine 1 receptor (Homo sapiens, UniProt P30542); assay: Agonist activity against adenosine 1 receptor (CHO cells, forskolin-enhanced cAMP/SPAP reporter); conditions: CHO cells transfected with human receptor; forskolin-enhanced cAMP via SPAP; mean of all the versions tested
T1 sequence (P30542 1-326): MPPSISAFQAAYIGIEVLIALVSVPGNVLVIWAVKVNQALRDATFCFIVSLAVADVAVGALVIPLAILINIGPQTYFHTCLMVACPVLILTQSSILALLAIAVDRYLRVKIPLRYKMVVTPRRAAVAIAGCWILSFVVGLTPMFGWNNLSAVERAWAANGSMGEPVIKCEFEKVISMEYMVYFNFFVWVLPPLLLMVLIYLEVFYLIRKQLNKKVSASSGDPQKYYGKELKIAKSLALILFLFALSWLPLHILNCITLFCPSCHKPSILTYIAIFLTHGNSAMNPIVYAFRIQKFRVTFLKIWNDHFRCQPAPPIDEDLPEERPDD
Experimental: (§1) (1) Agonist activity against adenosine 2a, adenosine 1 and adenosine 3 receptor subtypes.
(§2) The effect of test compounds was determined by their effects on basal levels of cAMP (A2a) or on forskolin-enhanced cAMP (A1 and A3) as reflected by changes in levels of SPAP.

adenosine 2a receptor = adenosine 2a receptor (Homo sapiens, UniProt P29274); assay: Agonist activity against adenosine 2a receptor (CHO cells, cAMP/SPAP reporter); conditions: CHO cells transfected with human receptor; basal cAMP via SPAP; mean of all the versions tested
Experimental: as §1, §2

adenosine 3 receptor = molecular target: T2, adenosine 3 receptor (Homo sapiens, UniProt P0DMS8); assay: Agonist activity against adenosine 3 receptor (CHO cells, forskolin-enhanced cAMP/SPAP reporter); conditions: CHO cells transfected with human receptor; forskolin-enhanced cAMP via SPAP; mean of all the versions tested
T2 sequence (P0DMS8 1-318): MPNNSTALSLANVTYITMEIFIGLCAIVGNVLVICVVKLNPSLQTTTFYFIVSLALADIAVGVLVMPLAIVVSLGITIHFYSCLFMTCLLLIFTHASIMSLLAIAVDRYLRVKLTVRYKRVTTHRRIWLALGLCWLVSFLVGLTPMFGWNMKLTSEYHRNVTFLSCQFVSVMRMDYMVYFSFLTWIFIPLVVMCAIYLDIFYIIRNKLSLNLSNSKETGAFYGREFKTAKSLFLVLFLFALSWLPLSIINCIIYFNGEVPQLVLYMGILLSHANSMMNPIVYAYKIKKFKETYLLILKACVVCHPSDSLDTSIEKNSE
Experimental: as §1, §2

Sequence of adenosine 2a receptor (P29274 whole entry): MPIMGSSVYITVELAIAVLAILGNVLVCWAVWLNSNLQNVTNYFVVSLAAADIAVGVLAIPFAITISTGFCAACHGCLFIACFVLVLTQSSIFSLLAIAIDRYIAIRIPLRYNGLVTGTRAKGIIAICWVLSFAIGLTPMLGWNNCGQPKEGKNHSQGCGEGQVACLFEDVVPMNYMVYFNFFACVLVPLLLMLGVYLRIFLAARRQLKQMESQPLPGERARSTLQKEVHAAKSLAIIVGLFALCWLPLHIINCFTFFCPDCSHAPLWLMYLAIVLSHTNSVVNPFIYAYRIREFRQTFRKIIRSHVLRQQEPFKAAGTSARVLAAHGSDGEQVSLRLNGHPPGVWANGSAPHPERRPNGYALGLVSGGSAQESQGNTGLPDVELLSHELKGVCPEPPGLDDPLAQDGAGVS

Row | SMILES | A1 EC50 as a ratio of that of NECA (adenosine 1 receptor) | A2a EC50 as a ratio of that of NECA (adenosine 2a receptor) | A3 EC50 as a ratio of that of NECA (adenosine 3 receptor)
1 | CCn1nnc([C@H]2O[C@@H](n3cnc4c(N)nc(NCCc5ccc(O)cc5)nc43)[C@H](O)[C@@H]2O)n1.O=CO [Example 16, (2R,3R,4S,5R)-2-{6-Amino-2-[2-(4-hydroxy-phenyl)-ethylamino]-purin-9-yl}-5-(2-ethyl-2H-tetrazol-5-yl)-tetrahydro-furan-3,4-diol Formate] | 516.4 | 0.3 | >209
2 | CCn1nnc(C2OC(n3cnc4c(NCCN5CCCCC5)nc(NC(CO)Cc5ccccc5)nc43)C(O)C2O)n1 [Example 69, (2R,3S,4R,5R)-2-(2-Ethyl-2H-tetrazol-5-yl)-5-[2-(1S-hydroxymethyl-2-phenyl-ethylamino)-6-(2-piperidin-1-yl-ethylamino)-purin-9-yl]-tetrahydro-furan-3,4-diol Formate] | 515.30 | 6.60 | >148
3 | CCn1nnc(C2OC(n3cnc4c(NCc5cccc(I)c5)nc(NC5CCNC5)nc43)C(O)C2O)n1 [Example 23, (2R,3S,4R,5R)-2-(2-Ethyl-2H-tetrazol-5-yl)-5-[6-(3-iodo-benzylamino)-2-(pyrrolidin-3R-ylamino)-purin-9-yl]-tetrahydro-furan-3,4-diol Diformate] | 159 | 0.8 | >336
4 | CCn1nnc([C@H]2O[C@@H](n3cnc4c(N)nc(NCCc5ccc(OC)cc5)nc43)[C@H](O)[C@@H]2O)n1.O=CO [Example 18, (2R,3R,4S,5R)-2-{6-Amino-2-[2-(4-methoxy-phenyl)-ethylamino]-purin-9-yl}-5-(2-ethyl-2H-tetrazol-5-yl)-tetrahydro-furan-3,4-diol Formate] | 136.7 | 0.36 | >223
5 | Cn1nnc(C2OC(n3cnc4c(NC(CO)Cc5ccccc5)nc(NC5CCC(N)CC5)nc43)C(O)C2O)n1 [Example 35, (2R,3R,4S,5R)-2-[2-(trans-4-Amino-cyclohexylamino)-6-(1S-hydroxymethyl-2-phenyl-ethylamino)-purin-9-yl]-5-(2-methyl-2H-tetrazol-5-yl)-tetrahydro-furan-3,4-diol bis(Formate)] | 123 | 0.79 | >201
6 | CCn1nnc(C2OC(n3cnc4c(NC5CCCC5)nc(NCCc5cn(C)cn5)nc43)C(O)C2O)n1 [Example 7, (2R,3R,4S,5R)-(2-{6-Cyclopentylamino-2-[2-(1-methyl-1H-imidazol-4-yl)-ethylamino]-purin-9-yl}-5-(2-ethyl-2H-tetrazol-5-yl)-tetrahydro-furan-3,4-diol Acetate] | 26.2 | 0.12 | >161
7 | CCn1nnc([C@H]2O[C@@H](n3cnc4c(N)nc(NCc5ccccc5CO)nc43)[C@H](O)[C@@H]2O)n1.O=C(O)C(F)(F)F [Example 86, (2R,3R,4S,5R)-2-[6-Amino-2-(2-hydroxymethyl-benzylamino)-purin-9-yl]-5-(2-ethyl-2H-tetrazol-5-yl)-tetrahydro-furan-3,4-diol Trifluoroacetate] | 16.90 | 2.16 | >179
8 | Cn1cnc(CCNc2nc(NCc3ccccc3)c3ncn([C@@H]4O[C@H](c5nnn(C)n5)[C@@H](O)[C@H]4O)c3n2)c1.O=CO [Example 30, (2R,3R,4S,5R)-2-{6-Benzylamino-2-[2-(1-methyl-1H-imidazol-4-yl)-ethylamino]-purin-9-yl}-5-(2-methyl-2H-tetrazol-5-yl)-tetrahydro-furan-3,4-diol Formate] | >7976 | 0.43 | >105
9 | Cn1nnc(C2OC(n3cnc4c(NC(CO)Cc5ccccc5)nc(NCCN5CCCC5)nc43)C(O)C2O)n1 [Example 111, (2R,3R,4S,5R)-2-[6-(1S-Hydroxymethyl-2-phenyl-ethylamino)-2-(2-pyrrolidin-1-yl-ethylamino)-purin-9-yl]-5-(2-methyl-2H-tetrazol-5-yl)-tetrahydro-furan-3,4-diol bis(Formate)] | 298.50 | 2.92 | >315
10 | CCn1nnc(C2OC(n3cnc4c(NCCC5CCCCC5)nc(NC5CCNC5)nc43)C(O)C2O)n1 [Example 72, (2R,3R,4S,5R)-2-[6-(2-Cyclohexyl-ethylamino)-2-(pyrrolidin-3R-ylamino)-purin-9-yl]-5-(2-ethyl-2H-tetrazol-5-yl)-tetrahydro-furan-3,4-diol Diformate] | 848.50 | 6.48 | >158
11 | CCn1nnc([C@H]2O[C@@H](n3cnc4c(NCc5cccc(I)c5)nc(NCCc5cn(C)cn5)nc43)[C@H](O)[C@@H]2O)n1 [Example 3, (2R,3S,4R,5R)-2-(2-Ethyl-2H-tetrazol-5-yl)-5-{6-(3-iodo-benzylamino)-2-[2-(1-methyl-1H-imidazol-4-yl)-ethylamino]-purin-9-yl}-tetrahydro-furan-3,4-diol] | 230.8 | 0.84 | >116
12 | CCC(CC)Nc1nc(NCCN2CCCCC2)nc2c1ncn2C1OC(c2nnn(C(C)C)n2)C(O)C1O.O=CO.O=CO [Example 68, (2R,3R,4S,5R)-2-[6-(1-Ethyl-propylamino)-2-(2-piperidin-1-yl-ethylamino)-purin-9-yl]-5-(2-isopropyl-2H-tetrazol-5-yl)-tetrahydro-furan-3,4-diol bis(Formate)] | 56.20 | 3.50 | >331
13 | CCC(CC)Nc1nc(NC2CCC(N)CC2)nc2c1ncn2C1OC(c2nnn(C(C)C)n2)C(O)C1O.O=CO.O=CO [Example 67, (2R,3R,4S,5R)-2-[2-(trans-4-Amino-cyclohexylamino)-6-(1-ethyl-propylamino)-purin-9-yl]-5-(2-isopropyl-2H-tetrazol-5-yl)-tetrahydro-furan-3,4-diol bis(Formate)] | 73.85 | 2.96 | >326
14 | CC(C)n1nnc(C2OC(n3cnc4c(NC(CO)Cc5ccccc5)nc(NCCc5cn(C)cn5)nc43)C(O)C2O)n1 [Example 40, (2R,3R,4S,5R)-2-{6-(1S-Hydroxymethyl-2-phenyl-ethylamino)-2-[2-(1-methyl-1H-imidazol-4-yl)-ethylamino]-purin-9-yl}-5-(2-isopropyl-2H-tetrazol-5-yl)-tetrahydro-furan-3,4-diol Formate] | 22.1 | 0.31 | >232
15 | Cn1nnc(C2OC(n3cnc4c(NCc5cccc(I)c5)nc(NCCN5CCCC5)nc43)C(O)C2O)n1.O=CO.O=CO [Example 108, (2R,3R,4S,5R)-2-[6-(3-Iodo-benzylamino)-2-(2-pyrrolidin-1-yl-ethylamino)-purin-9-yl]-5-(2-methyl-2H-tetrazol-5-yl)-tetrahydro-furan-3,4-diol bis(Formate)] | 111.30 | 2.25 | >201
16 | Cn1cnc(CCNc2nc(NCc3cccc(I)c3)c3ncn([C@@H]4O[C@H](c5nnn(C)n5)[C@@H](O)[C@H]4O)c3n2)c1.O=CO [Example 29, (2R,3R,4S,5R)-2-{6-(3-Iodo-benzylamino)-2-[2-(1-methyl-1H-imidazol-4-yl)-ethylamino]-purin-9-yl}-5-(2-methyl-2H-tetrazol-5-yl)-tetrahydro-furan-3,4-diol Formate] | >3561 | 0.87 | >105
